Columns and labels:
[1] = tested on: Human dermal fibroblasts (HDFs); assay: Microarray analysis of genome-wide gene expression; type: cell-based; conditions: 1 μM effector, 48 hours, vs 0.5% DMSO
[2] = tested on: HDAC (nucleus extracts of HeLa cells); assay: HDAC inhibitory activity evaluation (Color de Lys Substrate Deacetylation); type: biochemical; conditions: 0.2 mM substrate, 37° C., 30 minutes, absorption at 405 nm
Method: Trichostatin A (TSA), SAHA, and CTB were evaluated for their inhibitory activity against Color de Lys™ Substrate Deacetylation using nucleus extracts of HeLa cells. The nucleus extracts of HeLa cells were incubated with 0.2 mM of a substrate at 37° C. After 30 minutes, the reaction was terminated. Then, absorption at 405 nm was measured using Color de Lys™ Developer and thereby evaluated as HDAC inhibitory activity. The strong HDAC inhibitor trichostatin A (TSA) was compared with SAHA and CTB in terms of HDAC inhibitory activity.

Structure (SMILES) | gene groups whose expression is activated (microarray clustering analysis) [1] | HDAC inhibitory activity [2]
O=C(CCCCCCC(=O)Nc1ccccc1)NO [SAHA, suberoylanilide hydroxamic acid] | activates the expression of cancer- and cardiovascular disease-related gene groups | 
CCOc1ccccc1C(=O)Nc1ccc(Cl)c(C(F)(F)F)c1 [CTB, N-(4-chloro-3-(trifluoromethyl)phenyl)-2-ethoxybenzamide] | activates the expression of a connective tissue disorder-related gene group | lack HDAC inhibitory activity

Reference: US11097009B2, “CTB-PI polyamide conjugate for activating expression of specific gene” (KYOTO UNIVERSITY, priority 2015, dated 2021)
